In one test the target is T1, Cannabinoid CB2 Receptor (Homo sapiens, UniProt P34972).
T1 construct: expressed in transfected cells; semi-purified membrane pellet
Briefly: Binding assay, cannabinoid CB2 receptor ([3H]-CP-55,940 displacement, SK-N-MC cell membranes). To be noted: test concentration of 0.2 μM; human CB2 in SK-N-MC membranes; read-out: Cannabinoid CB2 Receptor Binding, percent inhibition. The procedure:
(§1) Binding Assay for CB1 or CB2 Agonists or Inverse Agonists
(§2) The human CB1 and CB2 receptors were stably expressed in SK-N-MC cells transfected with pcDNA3 CB-1 (human) or pcDNA3 CB-2 (human). The cells were grown in T-180 cell culture flasks under standard cell culture conditions at 37° C. in a 5% CO2 atmosphere. The cells were harvested by trysinization and homogenized in a homogenization buffer (10 mM Tris, 0.2 mM MgCl2, 5 mM KCl, with protease inhibitors aprotinin, leupeptin, pepstatin A and bacitracin) and centrifuged (2000 g). The supernatant was then centrifuged in 2M sucrose (31,300 g) to produce a semi-purified membrane pellet. The pellet was resuspended in homogenization and store at −80° C.
(§3) On the day of the assay, the pellet was thawed on ice and diluted in assay buffer (50 mM Tris-HCl, 5 mM MgCl2, 2.5 mM EDTA, 0.5 mg/mL fatty acid free bovine serum albumin, pH 7.5). The diluted membrane was added with buffer, test compound or standard and the radioligand [H]^3+-CP-55,940 (0.2 nM) to the wells of a 96-well polypropylene plate. Non-specific binding was measured in wells containing 10 uM WIN 55,212. The plate was covered and incubated for 90 minutes at 30° C. The contents were then aspirated onto a Packard Unifilter GF/C filter bottom plate prewet with 0.5% polyethyleneimine. The wells of the polypropylene plate were rinsed and aspirated seven times with a 0.9% saline-0.5% Tween 20 solution. The Unifilter plate was dried, a scintillation cocktail was added to each well and the counts representing binding were quantitated in a TopCount scintillation counter.
For compounds tested, an IC50 binding value was obtained from percent inhibition studies in which various test concentrations were used. The binding value (in μM) was calculated by linear regression. For compounds without an IC50 binding value, the percent inhibition (in %) was obtained at a test concentration of 0.2 μM.

The target of the next test is T2, Cannabinoid CB1 Receptor (Homo sapiens, UniProt P21554).
T2 construct: expressed in transfected cells; semi-purified membrane pellet
Briefly: Binding assay, cannabinoid CB1 receptor ([3H]-CP-55,940 displacement, SK-N-MC cell membranes). The settings on record: for inhibition at 0.2 µM: read-out: Cannabinoid CB1 Receptor Binding, percent inhibition. How it is done: as §1, §2
as §3, with “The diluted membrane was added with buffer, test compound or standard and the radioligand [H]^3+-CP-55,940 (0.2 nM) to the wells of a 96-well polypropylene plate. Non-specific binding was measured in wells containing 10 uM WIN 55,212.” left out
For compounds tested, an IC50 binding value was obtained from percent inhibition studies in which various test concentrations were used. The binding value (in μM) was calculated by linear regression.

Where [1] appears, read: test concentration of 0.2 μM, human CB1 in SK-N-MC membranes.

Read-outs that look alike come from different tables or passages of the source.

T1 sequence (P34972 whole entry): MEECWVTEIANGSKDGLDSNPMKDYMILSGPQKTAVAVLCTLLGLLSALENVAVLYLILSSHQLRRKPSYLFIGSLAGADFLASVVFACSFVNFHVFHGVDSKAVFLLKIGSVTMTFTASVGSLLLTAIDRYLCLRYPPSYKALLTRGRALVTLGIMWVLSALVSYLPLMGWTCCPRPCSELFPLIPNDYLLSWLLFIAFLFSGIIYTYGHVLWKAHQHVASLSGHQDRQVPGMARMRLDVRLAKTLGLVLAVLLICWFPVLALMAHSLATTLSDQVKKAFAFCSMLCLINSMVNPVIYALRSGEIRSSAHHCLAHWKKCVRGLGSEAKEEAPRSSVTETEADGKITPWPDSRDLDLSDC
T2 sequence (P21554 whole entry): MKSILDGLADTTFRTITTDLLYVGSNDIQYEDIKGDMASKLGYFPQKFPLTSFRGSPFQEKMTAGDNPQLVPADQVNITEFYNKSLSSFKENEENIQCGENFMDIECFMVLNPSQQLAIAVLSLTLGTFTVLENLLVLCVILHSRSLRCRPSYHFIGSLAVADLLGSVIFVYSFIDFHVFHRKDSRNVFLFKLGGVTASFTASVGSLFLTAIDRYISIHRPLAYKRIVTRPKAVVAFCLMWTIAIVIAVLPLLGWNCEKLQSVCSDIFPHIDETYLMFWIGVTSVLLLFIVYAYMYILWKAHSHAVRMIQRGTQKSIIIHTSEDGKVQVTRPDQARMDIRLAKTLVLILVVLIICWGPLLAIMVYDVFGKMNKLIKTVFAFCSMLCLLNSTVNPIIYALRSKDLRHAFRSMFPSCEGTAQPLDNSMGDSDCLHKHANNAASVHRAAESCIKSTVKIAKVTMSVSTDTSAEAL

Regarding `C[C@H](NC(=O)c1nn(-c2ccc(Cl)cc2Cl)c2c1COC/C2=C\c1ccsc1)C1CCCCC1` [Cpd 41, (7Z)-1-(2,4-dichloro-phenyl)-7-thiophen-3-ylmethylene-1,4,6,7-tetrahydro-pyrano[4,3-c]pyrazole-3-carboxylic acid [(S)-1-cyclohexyl-ethyl]-amide], the inhibition (as a rule, the percentage by which the read-out fell short of the control) at 0.2 µM on Cannabinoid CB2 Receptor came to 21%; on Cannabinoid CB1 Receptor, 56%.
Turning to `O=C(NN1CCCC1)c1nn(-c2ccc(Cl)cc2)c2c1COC/C2=C\c1ccc(F)cc1` [Cpd 16, (7Z)-1-(4-chloro-phenyl)-7-(4-fluoro-benzylidene)-1,4,6,7-tetrahydro-pyrano[4,3-c]pyrazole-3-carboxylic acid pyrrolidin-1-ylamide], the inhibition at 0.2 µM on Cannabinoid CB2 Receptor was 11%; at Cannabinoid CB1 Receptor (setting [1]) it was 44%.
For the compound `C[C@H](NC(=O)c1nn(-c2ccc(Cl)cc2Cl)c2c1COC/C2=C\c1ccc(Cl)s1)c1ccccc1` [Cpd 51, (7Z)-7-(5-chloro-thiophen-2-ylmethylene)-1-(2,4-dichloro-phenyl)-1,4,6,7-tetrahydro-pyrano[4,3-c]pyrazole-3-carboxylic acid [(S)-1-phenyl-ethyl]-amide], the inhibition at 0.2 µM at Cannabinoid CB2 Receptor was 15%; on Cannabinoid CB1 Receptor (setting [1]) it was 48%.
The corresponding values for `O=C(N[C@H](CO)c1ccccc1)c1nn(-c2ccc(Cl)cc2Cl)c2c1COC/C2=C\c1ccsc1` [Cpd 48, (7Z)-1-(2,4-dichloro-phenyl)-7-thiophen-3-ylmethylene-1,4,6,7-tetrahydro-pyrano[4,3-c]pyrazole-3-carboxylic acid [(1S)-2-hydroxy-1-phenyl-ethyl]-amide] are 17% and 36%.
In the same order, the values of `CN(C(=O)c1nn(-c2ccc(Cl)cc2)c2c1COC/C2=C\c1ccc(F)cc1)c1ccccc1` [Cpd 14, (7Z)-1-(4-chloro-phenyl)-7-(4-fluoro-benzylidene)-1,4,6,7-tetrahydro-pyrano[4,3-c]pyrazole-3-carboxylic acid methyl-phenyl-amide] are 7% and 49%.
The corresponding values for `COC[C@H]1CCCN1NC(=O)c1nn(-c2ccc(Cl)cc2Cl)c2c1COC/C2=C\c1ccc(F)cc1` [Cpd 75, (7Z)-1-(2,4-dichloro-phenyl)-7-(4-fluoro-benzylidene)-1,4,6,7-tetrahydro-pyrano[4,3-c]pyrazole-3-carboxylic acid [(2R)-2-methoxymethyl-pyrroldin-1-yl]-amide] are 15% and 68%.
With `O=C(NN1CCCCCC1)c1nn(-c2ccc(Cl)cc2Cl)c2c1COC/C2=C\c1ccc(Cl)s1` [Cpd 53, (7Z)-7-(5-chloro-thiophen-2-ylmethylene)-1-(2,4-dichloro-phenyl)-1,4,6,7-tetrahydro-pyrano[4,3-c]pyrazole-3-carboxylic acid azepan-1-ylamide], the inhibition at 0.2 µM at Cannabinoid CB2 Receptor stood at 10%; at Cannabinoid CB1 Receptor (setting [1]), 83%. For the same compound, on Cannabinoid CB1 Receptor, the IC50 (as a rule, the concentration that inhibits the measured activity by half) was found to be 0.01 µM.
Take `O=C(NN1CCCCC1)c1nn(-c2ccc(Cl)cc2Cl)c2c1COCC2Cc1ccc(F)cc1` (centres unmarked) [Cpd 23, 1-(2,4-dichloro-phenyl)-7-(4-fluoro-benzyl)-1,4,6,7-tetrahydro-pyrano[4,3-c]pyrazole-3-carboxylic acid piperidin-1-ylamide]: the inhibition at 0.2 µM on Cannabinoid CB2 Receptor was 19%; at Cannabinoid CB1 Receptor (setting [1]), 59%.
In the case of `C[C@@H](NC(=O)c1nn(-c2ccc(Cl)cc2)c2c1COC/C2=C\c1ccc(F)cc1)c1ccccc1` [Cpd 12, (7Z)-1-(4-chloro-phenyl)-7-(4-fluoro-benzylidene)-1,4,6,7-tetrahydro-pyrano[4,3-c]pyrazole-3-carboxylic acid [(1R)-1-phenyl-ethyl]-amide], the inhibition at 0.2 µM was 5% at Cannabinoid CB2 Receptor and 81% on Cannabinoid CB1 Receptor (setting [1]). This compound showed an IC50 at Cannabinoid CB1 Receptor of 0.05 µM.

(Values after patent US20100069341A1, “TETRAHYDRO-PYRANOPYRAZOLE CANNABINOID MODULATORS” (priority 2005, published 2010).)
